Key:
[1] = system: subjects with a taste and/or smell disorder; assay: Taste and/or smell function after intranasal dosage units in a plume from a multi-dose nasal spray device (Examples 10-15); assay type: in vivo, human; conditions: once per day in each naris
From the text: The improvements in taste and/or smell function are evidenced by a decrease in the detection threshold for at least one odorant and/or tastant, a decrease in the recognition threshold for at least one odorant and/or tastant, and/or an increase in a magnitude estimation for at least one odorant and/or tastant.

patients with hyposmia = assay: Subjective overall change in smell function; open trial of oral theophylline; assay type: in vivo, human; conditions: cilostazol added to 600 mg or 800 mg of theophylline in patients who improved <5%
Protocol: Independently, patients were also required to grade their ability to smell daily on a scale from 0-100, with 0 reflecting no overall smell function over a 24 hour period, 100 reflecting normal overall smell function over this period and numbers from 0-100 reflecting their estimation of their overall ability to smell odors over this period.
After determination of hyposmia, patients were treated in an open label, fixed design, controlled open trial. Patients were given an oral extended release theophylline in divided daily doses taken in the middle of breakfast and lunch. All patients were initially given 200 mg of theophylline; changes in this dose were made based upon subjective responses to therapy. If at a subsequent return visit, patients reported ≥5% subjective improvement in overall smell function, they continued on this same dose of theophylline and were reevaluated after four to six months of continued treatment. Results from any subsequent return from these improved patients were not included in any subsequent data report. All subsequent comparisons between treated and untreated patients were made only between those patients continuing in the study compared to their own measurements obtained in the untreated state. If patients reported <5% subjective improvement, their theophylline dose was increased by 200 mg daily and they were scheduled for retesting at the study site after two to four months at this new dosage. For patients that reported <5% improvement, this sequence continued until patients reached 800 mg of theophylline, at which time the study was considered completed.
Patients returned for reevaluation after two to four months of treatment. Measurements of blood serum theophylline were measured by a fluorescence polarization assay (Abbott, Chicago, Ill.). At this time, subjective changes in smell function were measured independently (compared to patient's memory of previous normal smell function monitored by use of the patients' daily measurements) using the scale from −100−0-+100 previously described. After independently recording their subjective responses, smell function was measured for all four odors with DT, RT, ME and H determined without recourse to prior measurements.
Subjective overall changes in smell acuity were reported by telephone and by FAX or email at two—four month intervals after treatment was initiated using the standardized form in which they measured daily changes in smell acuity using the −100−0-+100 scale as noted above. Using the same criteria noted above, if at their initial two—four month call-in they reported improvement in smell acuity of ≥5%, they continued at 200 mg and returned to the study site at four—six months on this treatment dose. If they reported improvement in smell acuity of <5% their dose of theophylline was increased to 400 mg for an additional two—four months and they then called the study site at the end of this period.

asthmatic patients = assay: sGaw after inhaled dry powder in asthmatic patients (Examples 5, 6)
Protocol: (§1) To test this theory, asthmatic patients are enrolled in a dose escalating single blind study. On arrival to the clinic, subjects are allowed to rest for 20 minutes before baseline measurements of FEV1 (six recordings) and sGaw (five recordings) are made. Subjects receive a dry powder dispenser loaded with a dose of 2 mg theophylline or a dry powder carrier. […] After each inhalation, measurements of sGaw are made at 1, 3, 5, 10, 15, 20, 25, and 30 minutes.
On completion of the last recording, subjects inhale a 200 μg dose of salbutamol from a metered inhaler and a further measurement of sGaw is made after 15 minutes. Subjects are also monitored for coughing and are questioned about the taste of the drug.
as §1, with “Asthmatic patients” for “To test this theory, asthmatic patients”, “of 1” for “of 2”, “mg IBMX formulated as a dry powder” for “mg theophylline”
On completion of the last recording, subjects inhale a 200 μg dose of salbutamol from a metered inhaler and a further measurement of sGaw made after 15 minutes. Subjects are also be monitored for coughing and are questioned about the taste of the drug.

PDE = conditions: non-specific PDE inhibitor; cited from earlier work

COc1ccc(Cc2nccc3cc(OC)c(OC)cc23)cc1OC [papaverine]
taste and/or smell function [1]: improvement in taste and/or smell function

O=C1CCc2cc(OCCCCc3nnnn3C3CCCCC3)ccc2N1 [cilostazol]
additional patients with improved smell function (patients with hyposmia): 15% | taste and/or smell function [1]: improvement in taste and/or smell function

O=C(Nc1c(Cl)cncc1Cl)c1ccc(OC(F)F)c(OCC2CC2)c1 [roflumilast]
taste and/or smell function [1]: improvement in taste and/or smell function

CC(C)Cn1c(=O)n(C)c(=O)c2[nH]cnc21 [IBMX, 3-isobutyl-1-methylxanthine]
sGaw above the baseline measurement (asthmatic patients; after 30 minutes, inhaled dry powder 1 mg IBMX): 20% | taste and coughing (asthmatic patients; human, in vivo): without the unpleasant taste or the induction of coughing | increase in sGaw relative to 200 μg inhaled salbutamol (asthmatic patients; inhaled dry powder 1 mg IBMX): comparable | time until sGaw baseline is reached (asthmatic patients; inhaled dry powder 1 mg IBMX): one and a half | IC50 (PDE): 2 to 50 µM

From patent US20190030036A1, “PHOSPHODIESTERASE INHIBITOR TREATMENT” (Cyrano Therapeutics, Inc., priority 2013, published 2019)
